US20160296499A1, “Spiroindoline Antiparasitic Derivatives” (ZOETIS SERVICES LLC, priority 2013, published 2016)
Like-named read-outs stand apart in the source and are kept apart here.

Experiments:
[1] = target: T1, bovine vesicular acetylcholine transporter (VAChT) (Bos taurus, UniProt E1BK36); assay: Radioligand Binding Assay; details: Bovine binding Ki, CHO-K1 membranes with recombinant bovine VAChT, [3H]Compound X6 0.3 nM
T1 sequence (E1BK36 1-524): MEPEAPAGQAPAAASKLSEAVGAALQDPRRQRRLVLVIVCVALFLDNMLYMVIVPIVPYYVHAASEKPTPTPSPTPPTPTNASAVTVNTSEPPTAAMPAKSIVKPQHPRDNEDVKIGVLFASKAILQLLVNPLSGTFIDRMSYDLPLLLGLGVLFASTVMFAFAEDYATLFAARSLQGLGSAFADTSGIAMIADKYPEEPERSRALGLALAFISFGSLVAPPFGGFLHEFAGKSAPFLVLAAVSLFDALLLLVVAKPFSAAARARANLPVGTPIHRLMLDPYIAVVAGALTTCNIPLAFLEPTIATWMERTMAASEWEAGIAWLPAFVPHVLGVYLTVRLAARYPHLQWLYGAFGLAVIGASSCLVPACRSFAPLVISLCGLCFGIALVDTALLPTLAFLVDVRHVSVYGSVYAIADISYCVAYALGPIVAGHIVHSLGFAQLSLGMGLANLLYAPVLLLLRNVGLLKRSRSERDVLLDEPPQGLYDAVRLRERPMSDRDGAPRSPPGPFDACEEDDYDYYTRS

[2] = tested on: Haemonchus contortus L3; assay: Haemonchus contortus, Larvae Stage 3 (HcL3) In Vitro Assay; details: Haemonchus contortus
[3] = tested on: Dirofilaria immitis microfilariae; assay: Dirofilaria immitis, Microfilariae (DiMF) In Vitro Assay; details: Dirofilaria immitis
[4] = 96 h, read-out: HcL3 MEC, Minimal Effective Concentration whereby worm motility is inhibited by approximately 70%, 37° C., tested 0.001-100 μM
[5] = 72 h, read-out: Di MF, MEC, decrease in microfilariae motility by visual assessment, curve starting at 100 μM
[6] = 96 hours, 37° C., read-out: HcL3 MEC

Row | Compound | Ki [1] [µM] | minimal effective concentration [2, 4] [µM] | minimal effective concentration [3, 5] [µM] | minimal effective concentration [2, 6] [µM] | minimal effective concentration ([3]; 72 hours, read-out: Di MF) [µM]
1 | N#Cc1ccc(/C=C/CN2CCC3(CC2)CN(C(=O)NCc2ccnc(Cl)c2)c2cccc(C(F)(F)F)c23)cc1 [Example 99, (E)-N-((2-chloropyridin-4-yl)methyl)-1′-(3-(4-cyanophenyl)allyl)-4-(trifluoromethyl)spiro[indoline-3,4′-piperidine]-1-carboxamide] | 0.306 | 10 | 5.7 | – | –
2 | O=C(NCc1ccnc(F)c1)N1CC2(CCN(C/C=C/c3ccc(F)cc3)CC2)c2ccc(OC(F)(F)F)cc21 [Example 100, (E)-1′-(3-(4-fluorophenyl)allyl)-N-((2-fluoropyridin-4-yl)methyl)-6-(trifluoromethoxy)spiro[indoline-3,4′-piperidine]-1-carboxamide] | 0.121 | 3.3 | 10 | – | –
3 | O=C(NCc1ccnc(F)c1)N1CC2(CCN(C/C=C/c3ccc(F)cc3)CC2)c2ccc(C(F)(F)F)cc21 [Example 101, (E)-1′-(3-(4-fluorophenyl)allyl)-N-((2-fluoropyridin-4-yl)methyl)-6-(trifluoromethyl)spiro[indoline-3,4′-piperidine]-1-carboxamide] | 0.0652 | – | – | 3.3 | 10
4 | O=C(NCc1ccnc(Cl)c1)N1CC2(CCN(C/C=C/c3ccc(Cl)c(Cl)c3)CC2)c2c(Br)cccc21 [Example 102, (E)-4-bromo-N-((2-chloropyridin-4-yl)methyl)-1′-(3-(3,4-dichlorophenyl)allyl)spiro[indoline-3,4′-piperidine]-1-carboxamide] | 0.144 | 5.3 | 10 | – | –
5 | O=C(NCc1ccnc(F)c1)N1CC2(CCN(C/C=C/c3ccc(Cl)c(Cl)c3)CC2)c2c(Br)cccc21 [Example 103, 4-bromo-1′-[(E)-3-(3,4-dichlorophenyl)allyl]-N-[(2-fluoro-4-pyridyl)methyl]spiro[indoline-3,4′-piperidine]-1-carboxamide] | 0.466 | 3.3 | 5.7 | – | –
6 | O=C(NCc1ccnc(F)c1)N1CC2(CCN(C/C=C/c3ccc(Cl)c(Cl)c3)CC2)c2cc(Br)ccc21 [Example 104, 5-bromo-1′-[(E)-3-(3,4-dichlorophenyl)allyl]-N-[(2-fluoro-4-pyridyl)methyl]spiro[indoline-3,4′-piperidine]-1-carboxamide] | 0.0437 | – | – | 3.3 | 10
7 | O=C(NCc1ccnc(F)c1)N1CC2(CCN(C/C=C/c3ccc(Cl)cc3)CC2)c2cc(Br)ccc21 [Example 105, 5-bromo-1′-[(E)-3-(4-chlorophenyl)allyl]-N-[(2-fluoro-4-pyridyl)methyl]spiro[indoline-3,4′-piperidine]-1-carboxamide] | 0.0322 | 3.3 | 3.3 | – | –
8 | O=C(NCc1ccnc(F)c1)N1CC2(CCN(C/C=C/c3ccc(F)cc3)CC2)c2cc(Br)ccc21 [Example 106, 5-bromo-1′-[(E)-3-(4-fluorophenyl)allyl]-N-[(2-fluoro-4-pyridyl)methyl]spiro[indoline-3,4′-piperidine]-1-carboxamide] | 0.0727 | 3.3 | 10 | – | –
9 | O=C(NCc1ccnc(F)c1)N1CC2(CCN(C/C=C/c3ccc(C(F)(F)F)cc3)CC2)c2cc(Br)ccc21 [Example 107, 5-bromo-N-[(2-fluoro-4-pyridyl)methyl]-1′-[(E)-3-[4-(trifluoromethyl)phenyl]allyl]spiro[indoline-3,4′-piperidine]-1-carboxamide] | 0.486 | 3.3 | 3.3 | – | –
10 | N#Cc1cccc(-c2ccc3c(c2)C2(CCN(C/C=C/c4ccc(Cl)c(Cl)c4)CC2)CN3C(=O)NCc2ccnc(F)c2)c1 [Example 108, 5-(3-cyanophenyl)-1′-[(E)-3-(3,4-dichlorophenyl)allyl]-N-[(2-fluoro-4-pyridyl)methyl]spiro[indoline-3,4′-piperidine]-1-carboxamide] | 32.6 | 100 | 3.3 | – | –
11 | N#Cc1ccc(-c2ccc3c(c2)C2(CCN(C/C=C/c4ccc(Cl)cc4)CC2)CN3C(=O)NCc2ccnc(F)c2)cn1 [Example 109, 1′-[(E)-3-(4-chlorophenyl)allyl]-5-(6-cyano-3-pyridyl)-N-[(2-fluoro-4-pyridyl)methyl]spiro[indoline-3,4′-piperidine]-1-carboxamide] | 0.0508 | 3.3 | 1.8 | – | –
12 | O=C(NCc1ccnc(F)c1)N1CC2(CCN(C/C=C/c3ccc(Cl)c(Cl)c3)CC2)c2cc(-c3cccnc3)ccc21 [Example 110, 1′-[(E)-3-(3,4-dichlorophenyl)allyl]-N-[(2-fluoro-4-pyridyl)methyl]-5-(3-pyridyl)spiro[indoline-3,4′-piperidine]-1-carboxamide] | 7.82 | 69.1 | 3.3 | – | –
13 | O=C(NCc1ccnc(F)c1)N1CC2(CCN(C/C=C/c3ccc(Cl)c(Cl)c3)CC2)c2cc(-c3cn[nH]c3)ccc21 [Example 111, 1′-[(E)-3-(3,4-dichlorophenyl)allyl]-N-[(2-fluoro-4-pyridyl)methyl]-5-(1H-pyrazol-4-yl)spiro[indoline-3,4′-piperidine]-1-carboxamide] | 3.38 | 100 | 10 | – | –
14 | O=C(NCc1ccnc(F)c1)N1CC2(CCN(C/C=C/c3ccc(Cl)c(Cl)c3)CC2)c2cc(-c3cncnc3)ccc21 [Example 112, 1′-[(E)-3-(3,4-dichlorophenyl)allyl]-N-[(2-fluoro-4-pyridyl)methyl]-5-pyrimidin-5-yl-spiro[indoline-3,4′-piperidine]-1-carboxamide] | 3.34 | 100 | 4.4 | – | –
15 | N#Cc1ccc2c(c1)C1(CCN(C/C=C/c3ccc(Cl)c(Cl)c3)CC1)CN2C(=O)NCc1ccnc(F)c1 [Example 113, 5-cyano-1′-[(E)-3-(3,4-dichlorophenyl)allyl]-N-[(2-fluoro-4-pyridyl)methyl]spiro[indoline-3,4′-piperidine]-1-carboxamide] | 0.0668 | 1 | 2.4 | – | –
16 | Cc1cccc2c1C1(CCN(C/C=C/c3ccc(Cl)c(Cl)c3)CC1)CN2C(=O)NCc1ccnc(F)c1 [Example 114, 1′-[(E)-3-(3,4-dichlorophenyl)allyl]-N-[(2-fluoro-4-pyridyl)methyl]-4-methyl-spiro[indoline-3,4′-piperidine]-1-carboxamide] | 0.241 | 5.7 | 10 | – | –
17 | N#Cc1cncc(-c2ccc3c(c2)C2(CCN(C/C=C/c4ccc(Cl)cc4)CC2)CN3C(=O)NCc2ccnc(F)c2)c1 [Example 115, 1′-[(E)-3-(4-chlorophenyl)allyl]-5-(5-cyano-3-pyridyl)-N-[(2-fluoro-4-pyridyl)methyl]spiro[indoline-3,4′-piperidine]-1-carboxamide] | 3.93 | 100 | 7.6 | – | –
